Measured values: patent US10562914B2, “Imidazoles as histone demethylase inhibitors” (Istituto Europeo di Oncologia S.r.l., priority 2016, dated 2020)
Where a name gives a salt, the structure may show the parent alone.

How the values were obtained:
[1] = molecular target: T1, human recombinant KDM1A/CoREST protein (Homo sapiens, UniProt O60341); test: Assay of enzyme inhibition of KDM1A (LSD1), TR-FRET; type: biochemical; details: 0.25 nM KDM1A/CoREST, 50 nM H3K4 monomethylated peptide, 20 min at RT
T1 construct: made in house; host or cells: E. coli
Description: 2.1 Assay of Enzyme Inhibition of KDM1A (LSD1)
The intensity of the light emission is proportional to the level of biotinylated reaction product. The complex of human recombinant KDM1A/CoREST protein was produced in E. coli as separate proteins and co-purified as previously described.
Demethylase reaction was started by the addition of 50 nM histone H3K4 monomethylated.
The resulting mixture was incubated in the dark for 1 h at RT. Then, TR-FRET signal was read by a fluorimeter (Infinite® F200, Tecan, Männedorf, Swirzerland) (Excitation 320 nm, Emission 665 nm and 620 nm, delay time 50 μs, window time 100 μs).
The inhibitor concentrations ranged from 0.025 to 500 μM (serial 1:3 dilutions). The IC50 was calculated using GraphPad Software.

[2] = system: Human leukemia MV4-11 cells; test: Cell growth, CellTiter-Fluor viability assay, MV4-11; type: cell-based; details: 48 h incubation, read-out: IC50 against human leukemia MV4-11 cells
Excerpt: (§1) CellTiter-Flor® (Promega) is as a nonlytic, single-reagent-addition fluorescence assay that measures the relative number of living cells in a culture population after experimental manipulation. The CellTiter-Fluor™ Cell Viability Assay measures the conserved and constitutive protease activity within live cells and therefore acts as a marker for cell viability.
(§2) Human leukemia MV4-11 cells, (obtained from the Deutsche Sammlung von Mikroorganismen und Zellkulturen, ACC 102) or NB4 cells, (obtained from the Deutsche Sammlung von Mikroorganismen und Zellkulturen) in exponential growth, were incubated for 48 h with different concentrations of the inhibitors. After 48 h a volume of CellTiter-Fluor® Reagent equal to one fifth of volume of cell culture medium was added. The content was mixed and incubates for at least 90 min at 37° C. degree to obtain a stable signal. The fluorescence was recorded using an excitation wavelength of 360 nm and an emission at 535 nm. The IC50 was calculated using GraphPad Software.

human leukemia NB4 cells = test: Cell growth, CellTiter-Fluor viability assay, NB4; type: cell-based; details: NB-4, 48 h incubation, read-out: IC50 against human leukemia NB4 cells
Excerpt: as §1, §2

Q: Which results are given for `CCc1cnc(-c2cc3sccc3n2C)n1CCOc1cccc(OC2CCNCC2)c1` [Example 19, 5-[5-ethyl-1-[2-[3-(4-piperidyloxy)phenoxy]ethyl]imidazol-2-yl]-4-methyl-thieno[3,2-b]pyrrole]?
A: IC50 [1]: < 0.1 µM; IC50 [2]: < 10 µM; IC50 (human leukemia NB4 cells): < 20 µM

Q: Which results are given for `CCc1cnc(-c2cc3sccc3n2C)n1CCOc1ccc(OC2CCNCC2)cc1` [Example 21, 5-[5-ethyl-1-[2-[4-(4-piperidyloxy)phenoxy]ethyl]imidazol-2-yl]-4-methyl-thieno[3,2-b]pyrrole]?
A: IC50 [1]: < 0.1 µM; IC50 [2]: < 10 µM; IC50 (human leukemia NB4 cells): < 20 µM

Q: Which IC50 [1] does the source give for `CCc1cn(CCOc2ccc(OCC3CCNC3)cc2)c(-c2cc3sccc3n2C)n1` (stereo not drawn) [Example 22, 5-[4-ethyl-1-[2-[4-(pyrrolidin-3-ylmethoxy)phenoxy]ethyl]imidazol-2-yl]-4-methyl-thieno[3,2-b]pyrrole hydrochloride] here?
A: < 0.1 µM

Q: And the IC50 [2]?
A: < 10 µM

Q: What about the IC50 (human leukemia NB4 cells) of the same compound?
A: < 20 µM

Q: For `CCc1cn(CCOc2ccc(OCC3CCNCC3)cc2)c(-c2cc3sccc3n2C)n1` [Example 23, 5-[4-ethyl-1-[2-[4-(4-piperidylmethoxy)phenoxy]ethyl]imidazol-2-yl]-4-methyl-thieno[3,2-b]pyrrole hydrochloride], which IC50 [1] is on record?
A: < 0.1 µM

Q: What about the IC50 [2] of the same compound?
A: < 10 µM

Q: What about the IC50 (human leukemia NB4 cells) of the same compound?
A: < 20 µM

Q: `CCc1cnc(-c2cc3sccc3n2C)n1CCOc1ccc(OCC2CCNCC2)cc1` [Example 24, 5-[5-ethyl-1-[2-[4-(4-piperidylmethoxy)phenoxy]ethyl]imidazol-2-yl]-4-methyl-thieno[3,2-b]pyrrole trifluoroacetate] was tested. Which IC50 [1] did it give?
A: < 0.1 µM

Q: What about the IC50 [2] of the same compound?
A: < 10 µM

Q: What about the IC50 (human leukemia NB4 cells) of the same compound?
A: < 20 µM

Q: Which IC50 [1] does the source give for `CCc1cnc(-c2cc3sccc3n2C)n1CCOc1ccc(OC2CCCNCC2)cc1` (stereo not drawn) [Example 26, 5-[1-[2-[4-(azepan-4-yloxy)phenoxy]ethyl]-5-ethyl-imidazol-2-yl]-4-methyl-thieno[3,2-b]pyrrole trifluoroacetate] here?
A: < 0.1 µM

Q: And the IC50 [2]?
A: < 10 µM

Q: And the IC50 (human leukemia NB4 cells)?
A: < 20 µM

Q: What does the source list for `CCc1cnc(-c2cc3sccc3n2C)n1CCCc1ccc(OC2CCNCC2)cc1` [Example 28, 5-[5-ethyl-1-[3-[4-(4-piperidyloxy)phenyl]propyl]imidazol-2-yl]-4-methyl-thieno[3,2-b]pyrrole hydrochloride]?
A: IC50 [1]: < 0.1 µM; IC50 [2]: < 10 µM; IC50 (human leukemia NB4 cells): < 20 µM

Q: `Cn1c(-c2ncc(C3CCC3)n2CCOc2ccc(OC3CCNCC3)cc2)cc2sccc21` [Example 30, 5-[5-cyclobutyl-1-[2-[4-(4-piperidyloxy)phenoxy]ethyl]imidazol-2-yl]-4-methyl-thieno[3,2-b]pyrrole hydrochloride] was tested. Which IC50 [1] did it give?
A: < 0.1 µM

Q: What about the IC50 [2] of the same compound?
A: < 10 µM

Q: And the IC50 (human leukemia NB4 cells)?
A: < 20 µM

Q: How did the IC50 [1] turn out when `CCc1c(-c2ccccc2)nc(-c2cc3sccc3n2C)n1CCOc1ccc(OC2CCNCC2)cc1` [Example 31, 5-[5-ethyl-4-phenyl-1-[2-[4-(4-piperidyloxy)phenoxy]ethyl]imidazol-2-yl]-4-methyl-thieno[3,2-b]pyrrole] was run?
A: < 0.1 µM

Q: What about the IC50 [2] of the same compound?
A: < 10 µM

Q: What about the IC50 (human leukemia NB4 cells) of the same compound?
A: < 20 µM

Q: `CCc1c(-c2ccccc2)nc(-c2cc3sccc3n2C)n1CCOc1cccc(OC2CCNCC2)c1` [Example 32, 5-[5-ethyl-4-phenyl-1-[2-[3-(4-piperidyloxy)phenoxy]ethyl]imidazol-2-yl]-4-methyl-thieno[3,2-b]pyrrole] was tested. Which IC50 [1] did it give?
A: < 0.1 µM

Q: What about the IC50 [2] of the same compound?
A: < 10 µM

Q: What about the IC50 (human leukemia NB4 cells) of the same compound?
A: < 20 µM

Q: With `CCc1nc(-c2cc3sccc3n2C)n(CCOc2cccc(OC3CCNCC3)c2)c1-c1ccccc1` [Example 33, 5-[4-ethyl-5-phenyl-1-[2-[3-(4-piperidyloxy)phenoxy]ethyl]imidazol-2-yl]-4-methyl-thieno[3,2-b]pyrrole] as the compound, how does the IC50 [1] read?
A: < 0.1 µM

Q: What about the IC50 [2] of the same compound?
A: < 10 µM

Q: What about the IC50 (human leukemia NB4 cells) of the same compound?
A: < 20 µM
